Results filed as inconclusive are left out. Activity calls are given as the source filed them.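 Rule for the calls: active = falling-signal curve with half-maximal concentration at or below ten times the top tested dose; inconclusive = flat fit at 30 to 70% inhibition, or poor fit; inactive = signal rise, flat within 30%, or potency beyond limit.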

This assay concerns NIH3T3 R4 HSE-GFP/Tet-RFP reporter, fluorescence, 48 h. Kind of assay: Tet-On RFP internal-standard readout, HSF1 screen, dose response, cell-based, NIH3T3 R4, HSE-GFP and Tet-On RFP, cherry-pick, set 3 (AID 493085).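 Note: cells heat shocked 2 h at 42 °C with doxycycline to induce reporters.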
Turning to `CCOC(=O)Cc1nnc2c(Nc3ccccc3F)nc3nonc3n12`, the AC50 was 2.32 µM.

`O=C(Nc1nc(-c2cccs2)cs1)c1cccc(S(=O)(=O)N2CCCCCC2)c1`: the half-maximal activity concentration (AC50) was 0.674 µM.

On to `CCCCn1c(=O)[nH]c(=O)c2c1nc(Cn1ncc(Cl)c(Cl)c1=O)n2CCC`, for which the AC50 was 18.2 µM.

As to `CC1CC(C)CN(C(=O)c2ccc(CSc3nc4ccncc4[nH]3)cc2)C1` (configuration not stated), the concentration at half-maximal activity (AC50) was 13.3 µM.

As to `CC1=C(C(=O)OCc2ccc3c(c2)OCO3)C(c2ccc(F)cc2)NC(=O)N1` (configuration not stated), the half-maximal activity concentration (AC50) was 0.27 µM.

As for `CCc1ccc(S(=O)(=O)/N=C2\C=C(Nc3ccc(O)cc3)C(=O)c3ccccc32)cc1`, the AC50 was 1.83 µM.

As to `Cc1occc1C(=O)Nc1cc(C(F)(F)F)ccc1Cl`, the AC50 is > 19.5 µM (inactive).

With `COc1ccc(N2CCN(C(CNC(=O)C(=O)NCc3ccncc3)c3ccco3)CC2)cc1` (configuration not stated), the AC50 was > 19.5 µM (inactive).

Consider `S=C1Cc2ccccc2N1`, for which the half-maximal activity concentration (AC50) was 2.46 µM.

For the compound `COCC1CCCCN1C(=O)c1cc(COc2ccc3ncccc3c2)on1` (configuration not stated), the AC50 was 0.448 µM.

For the compound `CC(C)(C)c1nn(-c2ccccc2)c2[nH]c(=O)c(CNc3ccc4c(c3)OCCO4)cc12`, the AC50 was > 19.5 µM (inactive).

Regarding `CC1CCCCN1CC(=O)Nc1ccccc1Sc1ccccc1` (configuration not stated), the half-maximal activity concentration (AC50) was 15.1 µM.

With `CN(C)c1ccc(CNc2ccc3c(c2)ncn3C(C)(C)C)cc1`, the AC50 is > 19.5 µM (inactive).

For the compound `O=C(c1nnsc1S(=O)(=O)c1ccc(Cl)cc1)N1CCOCC1`, the AC50 was 17.3 µM.

For `O=C(Nc1ccccc1N1CCCCC1)C1CCN(C(=O)c2ccc(Cl)cc2)CC1`, the AC50 was > 19.5 µM (inactive).

As for `CCCCN(C(=O)COc1ccc(C)cc1OC)c1c(N)n(CCC)c(=O)[nH]c1=O`, the AC50 is > 19.5 µM (inactive).

As for `Cc1ccc(-n2ncc(Br)c(Br)c2=O)cc1`, the concentration at half-maximal activity (AC50) is 18.3 µM.

Turning to `CCOc1cc(/C=N/NC(=O)c2cccc(S(=O)(=O)N3CCOCC3)c2)ccc1OCC(=O)N(C)C`, the AC50 is > 19.5 µM (inactive).

For `COc1ccc(C)cc1NS(=O)(=O)c1ccc(-c2cnc(C3CC3)o2)cc1`, the AC50 is 2.11 µM.

With `O=C(NCc1ccc2c(c1)OCO2)c1nc(S(=O)(=O)Cc2ccccc2)ncc1Cl`, the concentration at half-maximal activity (AC50) was 16.1 µM.

`CCNC(=S)N(C)CCc1cc2c(c(OC)c1C=C1C(=O)N(C)C(=O)N(C)C1=O)OCO2`: the AC50 was > 19.5 µM (inactive).

For the compound `COc1ccc(NC(=O)CSc2nnc3ccc(-c4ccncc4)nn23)cc1OC`, the AC50 is > 19.5 µM (inactive).

On to `O=C(CCl)Nc1cn(-c2ccccc2)nc1-c1ccc(F)cc1`, for which the AC50 was 5.82 µM.

`COc1ccc(S(=O)(=O)N2CCCCCC2)cc1C(=O)OCC(=O)NC(C)(C)C`: the AC50 was > 19.5 µM (inactive).

As for `CCOC(=O)c1ccc(-n2[nH]c(-c3ccccc3)cc2=O)cc1`, the AC50 was 4.13 µM.

Regarding `CCOc1ccc(-n2c(C)c(C(C)=O)c3cc(OC(C)=O)ccc32)cc1`, the AC50 was 2.24 µM.

Consider `COc1ccc(CN2CCC(C(=O)Nc3ccc(Oc4cccnc4)cc3)CC2)c(C)c1C`, for which the half-maximal activity concentration (AC50) was 17.2 µM.

As to `Cc1nn(C(C)(C)C)c(C)c1/C=N/OC(=O)Nc1ccc(Cl)c(Cl)c1`, the AC50 was > 19.5 µM (inactive).

In the case of `CC1CCc2nc(N)c(C#N)c(-c3cccnc3)c2C1` (configuration not stated), the concentration at half-maximal activity (AC50) was 0.708 µM.

For the compound `N#CC1=C(N)C(C#N)(C#N)C(c2cccnc2)C2CC(c3ccccc3)CC=C12` (configuration not stated), the half-maximal activity concentration (AC50) is 19.2 µM.

With `O=S(=O)(c1ccc2c(c1)C(=NO)c1cc(S(=O)(=O)N3CCCCC3)ccc1-2)N1CCCCC1`, the half-maximal activity concentration (AC50) was 2.9 µM.

As to `Cc1cc(C)c(NC(=O)CSc2nncn2-c2cccnc2)c(C)c1`, the AC50 is > 19.5 µM (inactive).

In the case of `COc1ccccc1N(C)S(=O)(=O)c1ccc(C(=O)NC(C)c2ccccc2)cc1` (configuration not stated), the AC50 was > 19.5 µM (inactive).

Regarding `Cc1cc(C)nc(NNC2=CC(=[N+]3CCCCC3)CC(C)(C)C2)n1`, the AC50 was 14.5 µM.

Regarding `Cc1ccc(NC2=C/C(=N\S(=O)(=O)c3cccs3)c3ccccc3C2=O)c(C)c1`, the half-maximal activity concentration (AC50) was 1.51 µM.

On to `O=S(=O)(Nc1cccc(Oc2cnccn2)c1)c1ccc(F)cc1`, for which the AC50 is > 19.5 µM (inactive).

For `Cc1cc(C)c(S(=O)(=O)/N=C2\C=C(Nc3ccc(C(=O)O)cc3)C(=O)c3ccccc32)c(C)c1`, the half-maximal activity concentration (AC50) is 4.97 µM.

For the compound `COc1ccc2[nH]c3c(=O)n(CCCN4CCOCC4)cnc3c2c1`, the AC50 is > 19.5 µM (inactive).

For the compound `N#Cc1cccc(C#N)c1Oc1ccc(S(=O)(=O)Nc2ccc(Cl)cc2)cc1`, the AC50 is 18.8 µM.

Take `CCOc1cc(C(=S)N2CCOCC2)ccc1OS(=O)(=O)c1ccc(OC)cc1`: the AC50 is 16.1 µM.

As for `CC1C/C(=N/Nc2nc3ccccc3[nH]2)CC(C)(C)C1` (configuration not stated), the AC50 is > 19.5 µM (inactive).

For `N#CC1=C(N)Oc2cc(N)ccc2C1c1ccccc1Cl` (configuration not stated), the AC50 was > 19.5 µM (inactive).

For `CN=c1scc(-c2ccco2)n1/N=C/c1ccc(O)c(O)c1`, the AC50 was 3.01 µM.

For `CCOc1c2ccc(C(=O)NCc3ccccc3OC)cc2nn1CC`, the AC50 is > 19.5 µM (inactive).

As to `CN1C(C(=O)Nc2ccc(OC(F)(F)F)cc2)=CC(c2cccs2)=NS1(=O)=O`, the concentration at half-maximal activity (AC50) is 17.7 µM.

Turning to `CCN(CC)c1ncnc2ccc(Br)cc12`, the AC50 is 19.9 µM.

As for `COC(=O)c1c(N2C(=O)[C@H]3[C@@H](C2=O)[C@]2(C(=O)Nc4c(C)cccc42)N2CCC[C@@H]32)sc(C)c1C`, the AC50 is > 19.5 µM (inactive).

With `CCOc1cc2c(cc1OCC)C(c1ccc(OC)cc1)N(c1ccccc1)C(=O)C2` (configuration not stated), the AC50 is > 19.5 µM (inactive).

In the case of `O=C(NCc1ccncc1)C(=O)Nc1nc(C23CC4CC(CC(C4)C2)C3)cs1`, the concentration at half-maximal activity (AC50) was 12 µM.

On to `CC1(C)CC(NC(=O)COc2ccccc2Cl)CC(C)(C)N1`, for which the AC50 was > 19.5 µM (inactive).

With `COc1ccc(OCc2cccc(C(=O)Nn3cc([N+](=O)[O-])cn3)c2)cc1`, the concentration at half-maximal activity (AC50) was 9.72 µM.

Turning to `CC(=O)c1cn(CC(=O)Nc2ccccc2C)c2ccccc12`, the half-maximal activity concentration (AC50) is 2.59 µM.

With `COc1c(N2CCN(C(=S)NC3CC4CCC3C4)C(C)C2)c(F)cc2c(=O)c(C(=O)O)cn(C3CC3)c12` (configuration not stated), the AC50 is 17.9 µM.

Take `NC(=O)c1sc2nc3c(c(-c4cccs4)c2c1N)CCCCC3`: the AC50 was 0.404 µM.

As for `O=C(CCCCCn1c(=S)[nH]c2cc3c(cc2c1=O)OCO3)N1CCN(C(=O)c2ccco2)CC1`, the AC50 was > 19.5 µM (inactive).

`CC(=O)OCCCNc1cc(Sc2ccc(C)cc2)c2nonc2c1[N+](=O)[O-]`: the half-maximal activity concentration (AC50) was 18.7 µM.

On to `CCOCCn1c(SCC(=O)OCc2ccccc2)nc2c1c(=O)[nH]c(=O)n2C`, for which the AC50 is > 19.5 µM (inactive).

(Values after PubChem BioAssay AID493085 (Broad Institute, 2011).)
